US20220354811A1, “METHODS AND COMPOSITIONS FOR MODULATING MACROPHAGES POLARIZATION” (INSERM (INSTITUT NATIONAL DE LA SANTÉ ET DE LA RECHERCHE …, priority 2019, published 2022)

System: IL4-polarized macrophages
Assay: mRNA expression in IL-4-polarized macrophages (RNAseq, qPCR)
Assay type: cell-based, human
Protocol: Human monocytes were differentiated during 5 days with 50 ng/mL CSF-1 and then polarized into MO-macrophages (CSF-1) or M2-macrophages (IL-4) for 24 (mRNA) or 48 hours. […] The expression of the indicated mRNA is analyzed by qPCR (mean ±SEM of 6 independent experiments). *P<0.05, **P<0.01 according to a paired student t test (versus M2-macrophages).
The RNA integrity (RNA Integrity Score≥7.0) was checked on the Agilent 2100 Bioanalyzer (Agilent) and quantity was determined using Qubit (Invitrogen). SureSelect Automated Strand Specific RNA Library Preparation Kit was used according to manufacturer's instructions with the Bravo Platform. Briefly, 50 to 200 ng of total RNA sample was used for poly-A mRNA selection using oligo(dT) beads and subjected to thermal mRNA fragmentation. The fragmented mRNA samples were subjected to cDNA synthesis and were further converted into double stranded DNA using the reagents supplied in the kit, and the resulting dsDNA was used for library preparation. The final libraries were bar-coded, purified, pooled together in equal concentrations and subjected to paired-end sequencing on Novaseq-6000 sequencer (Illumina) at Gustave Roussy.
Quantification. Quality of raw FastQ files was assessed with Fastqc v0.11.8 and Fastq-screen v0.13.0. Quality report was gathered with MultiQC v1.8. Abundance estimation was performed with Salmon v0.14.1 using following parameters: —libType A —validateMappings —numBootstraps 60. Salmon index was created using Human Gencode reference annotation release 33 and using following parameters —gencode —keepDuplicates. Differential analysis. Statistical analysis was performed using R 3.6.1. Transcript expression levels were aggregated in gene expression levels using tximport v1.14.0 Bioconductor package. At this step only protein coding genes were considered. We also decided to keep only high quality annotations therefore genes annotated as “automated annotation” in GENCODE were discarded. DESeq2 v1.26.0 method was used to identify differentially expressed genes between groups with an adjusted p-value threshold of 0.05.
RNA was prepared from 5×10^6 cells using the RNeasy Mini Kit according to manufacturer's protocol (Qiagen, 74104). Each cDNA sample was prepared using AMV RT and random primers (Promega, M510F and C1181). Real-time polymerase chain reaction (PCR) was performed using the SyBR Green detection protocol (Life Technologies, 4367659). Briefly, 5 ng of total cDNA, 500 nM (each) primers, and 5 μL SyBR Green mixture were used in a total volume of 10 μL. Detection of multiple endogenous controls (ACTB, L32 and UBIQUITIN) were used to normalize the results. Specific forward and reverse primers are accessible upon request.

[1] = qPCR, Emricasan 3 μM added 16h before polarization

C[C@H](NC(=O)C(=O)Nc1ccccc1C(C)(C)C)C(=O)N[C@@H](CC(=O)O)C(=O)COc1c(F)c(F)cc(F)c1F [Emricasan, (S)-3-((S)-2-(2-((2-(tert-Butyl)phenyl)amino)-2-oxoacetamido)propanamido)-4-oxo-5-(2,3,5,6-tetrafluorophenoxy)pentanoic acid]
IL-4 induction of anti-inflammatory and repression of pro-inflammatory markers (RNAseq) (macrophages from three different donors): counteracted
IL-4-increased CCL18 mRNA expression [1]: counteracted
IL-4-increased CD200R mRNA expression [1]: counteracted
CXCL8 mRNA level (qPCR, IL-4 combined with Emricasan 3 μM): upregulated
